# Measured values: US8143393B2, “Substituted 4-amino-pyrrolotriazine derivatives useful for treating hyper-proliferative disorders and diseases associated with angiogenesis” (Bayer HealthCare LLC, priority 2005, dated 2012)
# Target: T1, FGFR-1 (Homo sapiens, UniProt P11362)
# T1 construct: GST; made in house
# Test: FGFR-1 TR-FRET biochemical assay
# Details: 0.6 uM ATP, 5 nM FGFR1-GST; bounds given in nM
# Summary of the method: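 In this LANCE time-resolved FRET format, compounds at final 10 μM–0.128 nM (1% DMSO, 1:5 series) were preincubated before enzyme start. Reactions ran for one hour at room temperature with 0.6 uM ATP, 25 nM biotinylated poly GT and 5 nM GST-tagged FGFR1. Inhibition was calculated from the 665/615 nm ratio minus the ATP-free background.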
# T1 sequence (P11362 22-822): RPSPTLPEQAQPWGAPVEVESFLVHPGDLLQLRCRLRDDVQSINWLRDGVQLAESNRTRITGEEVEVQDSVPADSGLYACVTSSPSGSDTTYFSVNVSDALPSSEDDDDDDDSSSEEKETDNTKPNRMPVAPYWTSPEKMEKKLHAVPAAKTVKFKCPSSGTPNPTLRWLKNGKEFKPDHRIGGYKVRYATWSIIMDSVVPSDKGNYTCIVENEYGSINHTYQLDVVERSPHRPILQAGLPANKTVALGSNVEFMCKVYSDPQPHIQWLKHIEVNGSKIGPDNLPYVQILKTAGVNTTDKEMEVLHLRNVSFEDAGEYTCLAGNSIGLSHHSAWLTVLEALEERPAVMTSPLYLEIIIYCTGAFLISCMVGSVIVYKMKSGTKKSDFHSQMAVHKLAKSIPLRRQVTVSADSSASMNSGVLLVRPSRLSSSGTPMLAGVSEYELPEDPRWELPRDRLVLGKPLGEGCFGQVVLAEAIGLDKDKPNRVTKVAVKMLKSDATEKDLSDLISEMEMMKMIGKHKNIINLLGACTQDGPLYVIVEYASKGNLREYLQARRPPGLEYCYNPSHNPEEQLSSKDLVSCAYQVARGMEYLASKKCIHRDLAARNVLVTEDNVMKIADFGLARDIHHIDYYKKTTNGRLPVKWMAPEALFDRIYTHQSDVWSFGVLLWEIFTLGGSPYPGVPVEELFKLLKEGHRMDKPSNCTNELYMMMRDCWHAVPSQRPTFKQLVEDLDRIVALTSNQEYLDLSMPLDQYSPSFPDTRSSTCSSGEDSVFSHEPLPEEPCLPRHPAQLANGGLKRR
row,IC50 [nM],Structure (SMILES)
1,< 10,"CC(=O)N1CCC(c2cc(-c3ccc(NC(=O)Nc4cc(C(F)(F)F)ccc4F)c(Cl)c3)c3c(N)ncnn23)CC1 [Example 219, N-{4-[7-(1-acetylpiperidin-4-yl)-4-aminopyrrolo[2,1-f][1,2,4]triazin-5-yl]-2-chlorophenyl}-N′-[2-fluoro-5-(trifluoromethyl)phenyl]urea]"
2,< 10,"Nc1ncnn2c(CN3CCOCC3)cc(-c3ccc(NC(=O)Nc4cc(C(F)(F)F)ccn4)nc3)c12 [Example 12, N-{5-[4-amino-7-(morpholin-4-ylmethyl)pyrrolo[2,1-f][1,2,4]triazin-5-yl]pyridin-2-yl}-N′-[4-(trifluoromethyl)pyridin-2-yl]urea]"
3,< 10,"Nc1ncnn2c(CN3CCS(=O)(=O)CC3)cc(-c3ccc(NC(=O)Nc4cc(C(F)(F)F)ccn4)c(F)c3)c12 [Example 78, N-(4-{4-amino-7-[(1,1-dioxidothiomorpholin-4-yl)methyl]pyrrolo[2,1-f][1,2,4]triazin-5-yl}-2-fluorophenyl)-N′-[4-(trifluoromethyl)pyridin-2-yl]urea]"
4,< 10,"Cc1cc(-c2cc(CN3CCCOCC3)n3ncnc(N)c23)ccc1NC(=O)Nc1cc(C(F)(F)F)ccn1 [Example 180, 1-{4-[4-amino-7-(1,4-oxazepan-4-ylmethyl)pyrrolo[2,1-f][1,2,4]triazin-5-yl]-2-methylphenyl}-3-[4-(trifluoromethyl)pyridin-2-yl]urea]"
5,> 100,"Nc1ncnn2c(C(O)CO)cc(-c3ccc(NC(=O)Nc4cc(C(F)(F)F)ccc4F)c(F)c3)c12 (stereo not drawn) [Example 254, N-{4-[4-amino-7-(1,2-dihydroxyethyl)pyrrolo[2,1-f][1,2,4]triazin-5-yl]-2-fluorophenyl}-N′-[2-fluoro-5-(trifluoromethyl)phenyl]urea]"
6,10 to 100,"COc1cc(-c2cc(CN3CCOCC3)n3ncnc(N)c23)ccc1NC(=O)Nc1cccc(OC(F)(F)F)c1 [Example 33, N-{4-[4-amino-7-(morpholin-4-ylmethyl)pyrrolo[2,1-f][1,2,4]triazin-5-yl]-2-methoxyphenyl}-N′-[3-(trifluoromethoxy)phenyl]urea]"
7,10 to 100,"CC(C)(C)OC(=O)N1CCC(c2cc(-c3ccc(NC(=O)Nc4cc(C(F)(F)F)ccn4)c(F)c3)c3c(N)ncnn23)C1 (stereo not drawn) [Example 208, tert-butyl 3-{4-amino-5-[3-fluoro-4-({[4-(trifluoromethyl)pyridin-2-yl]carbamoyl}amino)phenyl]pyrrolo[2,1-f][1,2,4]triazin-7-yl}pyrrolidine-1-carboxylate]"
8,< 10,"CS(=O)(=O)N1CCC(c2cc(-c3ccc(NC(=O)Nc4cc(C(F)(F)F)ccc4F)c(F)c3)c3c(N)ncnn23)C1 (stereo not drawn) [Example 201, N-(4-{4-amino-7-[1-(methylsulfonyl)pyrrolidin-3-yl]pyrrolo[2,1-f][1,2,4]triazin-5-yl}-2-fluorophenyl)-N′-[2-fluoro-5-(trifluoromethyl)phenyl]urea]"
9,< 10,"CC(C)(C)c1cc(NC(=O)Nc2ccc(-c3cc(CN4CCOCC4)n4ncnc(N)c34)cc2)on1 [Example 2, N-{4-[4-amino-7-(morpholin-4-ylmethyl)pyrrolo[2,1-f][1,2,4]triazin-5-yl]phenyl}-N′-(3-tert-butylisoxazol-5-yl)urea]"
10,10 to 100,"COc1cc(-c2cc(CN3CCOCC3)n3ncnc(N)c23)ccc1NC(=O)Nc1ccc(F)c(C(F)(F)F)c1 [Example 32, N-{4-[4-amino-7-(morpholin-4-ylmethyl)pyrrolo[2,1-f][1,2,4]triazin-5-yl]-2-methoxyphenyl}-N′-[4-fluoro-3-(trifluoromethyl)phenyl]urea]"
11,10 to 100,"COc1cc(-c2cc(CN3CCOCC3)n3ncnc(N)c23)ccc1NC(=O)Nc1cc(C(F)(F)F)ccc1Cl [Example 35, N-{4-[4-amino-7-(morpholin-4-ylmethyl)pyrrolo[2,1-f][1,2,4]triazin-5-yl]-2-methoxyphenyl}-N′-[2-chloro-5-(trifluoromethyl)phenyl]urea]"
12,10 to 100,"COC[C@H]1CCCN1C(=O)c1cc(-c2ccc(NC(=O)Nc3cc(C(F)(F)F)ccc3F)c(F)c2)c2c(N)ncnn12 [Example 284, N-[4-(4-amino-7-{[2-(methoxymethyl)pyrrolidin-1-yl]carbonyl}pyrrolo[2,1-f][1,2,4]triazin-5-yl)-2-fluorophenyl]-N′-[2-fluoro-5-(trifluoromethyl)phenyl]urea]"
13,10 to 100,"COc1cc(NC(=O)Nc2cc(C(F)(F)F)ccn2)ccc1-c1cc(CN2CCOCC2)n2ncnc(N)c12 [Example 38, N-{4-[4-amino-7-(morpholin-4-ylmethyl)pyrrolo[2,1-f][1,2,4]triazin-5-yl]-3-methoxyphenyl}-N′-[4-(trifluoromethyl)pyridin-2-yl]urea]"
14,10 to 100,"COc1cc(NC(=O)Nc2cc(C(F)(F)F)ccc2F)ccc1-c1cc(CN2CCOCC2)n2ncnc(N)c12 [Example 37, N-{4-[4-amino-7-(morpholin-4-ylmethyl)pyrrolo[2,1-f][1,2,4]-triazin-5-yl]-3-methoxyphenyl}-N′-[2-fluoro-5-(trifluoromethyl)phenyl]urea]"
15,< 10,"Nc1ncnn2c(CN3CCNC(=O)C3)cc(-c3ccc(NC(=O)Nc4cc(C(F)(F)F)ccc4F)cc3)c12 [Example 39, N-(4-{4-amino-7-[(3-oxopiperazin-1-yl)methyl]pyrrolo[2,1-f][1,2,4]triazin-5-yl}phenyl)-N′-[2-fluoro-5-(trifluoromethyl)phenyl]urea]"
16,< 10,"CC(C)(C)c1ccnc(NC(=O)Nc2ccc(-c3cc(CCN4CCOCC4)n4ncnc(N)c34)cc2F)c1 [Example 228, N-{4-[4-amino-7-(2-morpholin-4-ylethyl)pyrrolo[2,1-f][1,2,4]triazin-5-yl]-2-fluorophenyl}-N′-(4-tert-butylpyridin-2-yl)urea]"
17,> 100,"Nc1ncnn2c(C(=O)COCCN3CCOCC3)cc(-c3ccc(NC(=O)Nc4cc(C(F)(F)F)ccc4F)c(F)c3)c12 [Example 260, N-(4-{4-amino-7-[(2-morpholin-4-ylethoxy)acetyl]pyrrolo[2,1-f][1,2,4]triazin-5-yl}-2-fluorophenyl)-N′-[2-fluoro-5-(trifluoromethyl)phenyl]urea]"
18,> 100,"CC(C)(C)OC(=O)N1CCN(Cc2cc(-c3ccc(NC(=O)Nc4cc(C(F)(F)F)ccc4F)cc3)c3c(N)ncnn23)CC1 [Example 80, tert-butyl 4-[(4-amino-5-{4-[({[2-fluoro-5-(trifluoromethyl)phenyl]amino}carbonyl)amino]phenyl}pyrrolo[2,1-f][1,2,4]triazin-7-yl)methyl]piperazine-1-carboxylate]"
19,< 10,"CCc1cccc(NC(=O)Nc2ccc(-c3cc(CN4CCOCC4)n4ncnc(N)c34)cc2)c1 [Example 50, N-{4-[4-amino-7-(morpholin-4-ylmethyl)pyrrolo[2,1-f][1,2,4]triazin-5-yl]phenyl}-N′-(3-ethylphenyl)urea]"
20,< 10,"Nc1ncnn2c(CN3CCCOCC3)cc(-c3ccc(NC(=O)Nc4cc(C(F)(F)F)ccn4)c(F)c3)c12 [Example 179, N-{4-[4-amino-7-(1,4-oxazepan-4-ylmethyl)pyrrolo[2,1-f][1,2,4]triazin-5-yl]-2-fluorophenyl}-N′-[4-(trifluoromethyl)pyridin-2-yl]urea]"
21,< 10,"Cc1cc(-c2cc(CN3CCOCC3)n3ncnc(N)c23)ccc1NC(=O)Nc1ccc(F)c(C(F)(F)F)c1 [Example 27, N-{4-[4-amino-7-(morpholin-4-ylmethyl)pyrrolo[2,1-f][1,2,4]triazin-5-yl]-2-methylphenyl}-N′-[4-fluoro-3-(trifluoromethyl)phenyl]urea]"
22,< 10,"Nc1ncnn2c(CCCN3CCOCC3)cc(-c3ccc(NC(=O)Nc4cc(C(F)(F)F)ccn4)c(F)c3)c12 [Example 191, N-{4-[4-amino-7-(3-morpholin-4-ylpropyl)pyrrolo[2,1-f][1,2,4]triazin-5-yl]-2-fluorophenyl}-N′-[4-(trifluoromethyl)pyridin-2-yl]urea]"
23,< 10,"Nc1ncnn2c(CCCN3CCCOCC3)cc(-c3ccc(NC(=O)Nc4cc(C(F)(F)F)ccc4F)c(F)c3)c12 [Example 193, N-(4-{4-amino-7-[3-(1,4-oxazepan-4-yl)propyl]pyrrolo[2,1-f][1,2,4]triazin-5-yl}-2-fluorophenyl)-N′-[2-fluoro-5-(trifluoromethyl)phenyl]urea]"
24,< 10,"Nc1ncnn2c(CN3CCNCC3)cc(-c3ccc(NC(=O)Nc4cc(C(F)(F)F)ccc4F)cc3)c12 [Example 81, N-4-[4-amino-7-(piperazin-1-ylmethyl)pyrrolo[2,1-f][1,2,4]triazin-5-yl]phenyl-N′-[2-fluoro-5-(trifluoromethyl)phenyl]urea]"
25,< 10,"Cc1cc(-c2cc(CN3CCOCC3)n3ncnc(N)c23)ccc1NC(=O)Nc1cc(C(F)(F)F)ccn1 [Example 26, N-{4-[4-amino-7-(morpholin-4-ylmethyl)pyrrolo[2,1-f][1,2,4]triazin-5-yl]-2-methylphenyl}-N′-[4-(trifluoromethyl)pyridin-2-yl]urea]"
26,< 10,"CN1CCN(C(=O)c2cc(-c3ccc(NC(=O)Nc4cc(C(F)(F)F)ccc4F)c(F)c3)c3c(N)ncnn23)CC1 [Example 161, N-(4-{4-amino-7-[(4-methylpiperazin-1-yl)carbonyl]pyrrolo[2,1-f][1,2,4]triazin-5-yl}-2-fluorophenyl)-N′-[2-fluoro-5-(trifluoromethyl)phenyl]urea]"
27,< 10,"Nc1ncnn2c(CN3CCNC(=O)C3)cc(-c3cc(F)c(NC(=O)Nc4cc(C(F)(F)F)ccc4F)cc3F)c12 [Example 164, N-(4-{4-amino-7-[(3-oxopiperazin-1-yl)methyl]-pyrrolo [2,1-f][1,2,4]triazin-5-yl}-2,5-difluorophenyl)-N′-[2-fluoro-5-(trifluoromethyl)phenyl]urea]"

# Same assay, conditions: upper bound of the bin 'greater than 100 nM but less than 1 μM' (lower bound in E1)
row,IC50 [nM],Structure (SMILES)
1,< 1000,"Nc1ncnn2c(C(O)CO)cc(-c3ccc(NC(=O)Nc4cc(C(F)(F)F)ccc4F)c(F)c3)c12 (stereo not drawn) [Example 254, N-{4-[4-amino-7-(1,2-dihydroxyethyl)pyrrolo[2,1-f][1,2,4]triazin-5-yl]-2-fluorophenyl}-N′-[2-fluoro-5-(trifluoromethyl)phenyl]urea]"
2,< 1000,"Nc1ncnn2c(C(=O)COCCN3CCOCC3)cc(-c3ccc(NC(=O)Nc4cc(C(F)(F)F)ccc4F)c(F)c3)c12 [Example 260, N-(4-{4-amino-7-[(2-morpholin-4-ylethoxy)acetyl]pyrrolo[2,1-f][1,2,4]triazin-5-yl}-2-fluorophenyl)-N′-[2-fluoro-5-(trifluoromethyl)phenyl]urea]"
3,< 1000,"CC(C)(C)OC(=O)N1CCN(Cc2cc(-c3ccc(NC(=O)Nc4cc(C(F)(F)F)ccc4F)cc3)c3c(N)ncnn23)CC1 [Example 80, tert-butyl 4-[(4-amino-5-{4-[({[2-fluoro-5-(trifluoromethyl)phenyl]amino}carbonyl)amino]phenyl}pyrrolo[2,1-f][1,2,4]triazin-7-yl)methyl]piperazine-1-carboxylate]"
